Where a name gives a salt, the structure may show the parent alone.
Columns and labels:
Type in all cases: physicochemical
[1] = Solution stability (isotonic solution, HPLC analysis); conditions: 0.1 mg/ml isotonic solution, ascorbic acid 0.5% (w/v), pH 2 and 4, stored four weeks at 4 to 8° C.; citrate salt
[2] = Hygroscopicity by Dynamic Vapour Sorption Analysis (DVS); conditions: 25° C., citrate salt
Protocol: Dynamic Vapour Sorption Analysis (DVS)
The studies were undertaken using Dynamic Vapour Sorption Appararatus (DVS, Surface Measurement Systems, London UK). The apparatus consists of Cahn micobalance housed inside a temperature-controled cabinet. All experiments were performed at 25° C. The DVS was used to characterize the moisture uptake (w/w %) at different relative humidities (RH). Samples (5-10 mg) were weighed directly into the DSV sample cup and exposed to different relative humidities.

[3] = Photo stability of bulk substance (Suntest CPS+ cabinet)
Protocol: The exposure was 250 Wh/m^2 and 1.2 million lux hours over 29 hours.

[4] = 29 hours control sample (stored in the dark)
[5] = exposure time 29 hours, 250 Wh/m^2 and 1.2 million lux hours

degradation in solution [1] | moisture uptake ([2]; 40% relative humidity) | moisture uptake ([2]; 60% relative humidity) | moisture uptake ([2]; 80% relative humidity) | photo stability of bulk substance ([3]; 29 hours control sample (stored in the dark), citrate salt) | photo stability of bulk substance ([3]; exposure time 0 hours, citrate salt) | photo stability of bulk substance ([3]; exposure time 29 hours, 250 Wh/m^2 and 1.2 million lux hours, citrate salt) | photo stability of bulk substance [3, 4] | photo stability of bulk substance ([3]; exposure time 0 hours) | photo stability of bulk substance [3, 5] | Compound
no degradation products | 7.1 w/w % | 7.6 w/w % | 8.0 w/w % | 99.1 | 99.0 | 98.1 |  |  |  | N#Cc1ccc2[nH]c(O)c(-c3ccc(CN4CCOCC4)cn3)c2c1 [Citrate, 2-Hydroxy-3-[5-(morpholin-4-ylmethyl)pyridin-2-yl]1H-indole-5-carbonitrile citrate salt]
 |  |  |  |  |  |  | 96.1 | 96.6 | 83.8 | N#Cc1ccc2[nH]c(O)c(-c3ccc(CN4CCOCC4)cn3)c2c1 [Free base, 2-Hydroxy-3-[5-(morpholin-4-ylmethyl)pyridin-2-yl]1H-indole-5-carbonitrile]
 |  |  |  |  |  |  | 97.7 | 97.5 | 89.0 | N#Cc1ccc2[nH]c(O)c(-c3ccc(CN4CCOCC4)cn3)c2c1 [HCl]

From patent publication US8008294B2 (AstraZeneca AB, priority 2006, dated 2011)
